Test results from article PMC11784026, “Phase 1 study of the safety, tolerability, and pharmacokinetics of a synthetic macrocyclic peptide antibiotic (BRII-693) in healthy adult participants” (Antimicrobial Agents and Chemotherapy, 2024).
Read-outs that look alike come from different tables or passages of the source. Where a SMILES comes first, the peptide text is derived from it. Bridges are numbered along the chain shown (N, C = ends). [ ]: non-standard residue; d: D form. The star is where a group is joined. X1 = O=C(c1ccc(Cl)cc1Cl)*; Dab = NCC[C@H](N)C(=O)O; Abu = CC[C@H](N)C(=O)O; Dap = NC[C@H](N)C(=O)O

Legend:
[1] = Plasma pharmacokinetics after single ascending doses (SAD), phase 1; format: in vivo, human (healthy adult participants); settings: for clearance / Vd / half-life / AUC(0-inf) / Cmax / AUC(0-t) / Tmax: human, plasma; for clearance: total clearance; for Vd: volume of distribution during terminal phase, read-out: VZ; for half-life: apparent terminal half-life; for AUC(0-t): read-out: AUC0–6h
Description: Participants were then discharged on day 3.
Plasma and urine PK parameters were summarized for each cohort using descriptive statistics. Analyses using linear models were performed to assess dose proportionality (both single-dose cohorts 1–7 and multiple-dose cohorts 8–10). Dose-linearity of Cmax and AUC across the dose range was assessed by fitting the power model with ln-transformed parameter as response variables and ln-transformed dose (continuous variable) as a fixed effect. For each PK parameter and study phase (SAD or MAD) separately, a pooled estimate (across all dose cohorts) of slope, corresponding 95% confidence interval (CI), and between-subject coefficient of variation (CV) were calculated. Dose proportionality was to be concluded if the 95% CI for the slope spans 1. […] Least square means (LSMs) and difference in LSMs with 90% CI were calculated; these values were then back exponentiated to give the geometric LSM, geometric mean ratio, and 90% CI.

[2] = Description: During the MAD phase of the study, repeat dosing of 100, 150, and 200 mg of BRII-693 was evaluated in sequential cohorts (cohorts 8–10) composed of eight participants each (six active; two placebo). Participants first received a single dose of BRII-693 or placebo as a 1-hour IV infusion on day 1; and then 48 hours later on day 3 through day 9, participants received BRII-693 or placebo every 6 hours (q6h) for 7 days, with the last dose in the morning on day 9. Participants were discharged on day 11. In the remaining two MAD cohorts (cohorts 11 and 12), repeat dosing of 150 mg of BRII-693 q6h for 14 days was evaluated in non-Chinese and Chinese (first and second generation) participants. Each cohort comprises 12 participants (10 active and 2 placebo). The last dose was in the morning on day 14, and participants were discharged on day 17.
For the 7-day MAD cohorts 8–10, blood samples were collected (i) on day 1 before dosing and at 0.5, 1, 1.25, 1.5, 2, 4, 6, 8, 12, 24, 36, and 48 hours following the start of dosing infusion; (ii) on day 3 prior to the morning dose and at 0.5, 1, 1.25, 1.5, 2, 4, and 6 hours after the start of the first dosing infusion; (iii) on day 9 before dosing and at 0.5, 1, 1.25, 1.5, 2, 4, 6, 8, 12, 24, 36, and 48 hours following the start of the last dosing infusion in the morning. Urine samples were collected before dosing and at the time intervals of 0–4, 4–8, 8–12, 12–24, 24–36, and 36–48 hours after the start of dosing infusion on days 1 and 9.
For the 14-day MAD cohorts 11 and 12, blood samples were collected (i) on day 1 prior to and at 0.5, 1, 1.25, 1.5, 2, 4, and 6 hours after the start of the first dosing infusion and (ii) on day 14 before dosing and at 0.5, 1, 1.25, 1.5, 2, 4, 6, 8, 12, 24, 36, 48, 60, and 72 hours following the start of the last dosing infusion in the morning. Urine samples were collected before dosing and at the time intervals of 0–4, 4–8, 8–12, 12–24, 24–36, 36–48, and 48–72 hours after the start of dosing infusion on Day 14.
All blood samples were collected into EDTA-containing vials, immediately placed on ice, and centrifuged at 3,000× g for approximately 10 minutes at 4°C. Supernatant plasma was transferred to two pre-chilled cryopreservation vials (at least 1.0 mL per vial) and stored at −80°C until shipped to the analytical laboratory. Urine samples collected for each time interval were refrigerated, aliquoted, and stored at −80°C until shipped to the analytical laboratory. Plasma and urine samples were analyzed for BRII-693 concentrations using validated high-performance liquid chromatography with detection by mass spectrometry method (BioAgilytix, San Diego, CA). The assay range was 50.0–50,000 ng/mL in both plasma and urine.
Area under the concentration-time curve (AUC) from time zero to the time of the last quantifiable concentration (AUC0–last), AUC from time zero to infinity (AUC0–inf), AUC within a dosing interval of 6 hours (AUC0–6h), maximum observed concentration (Cmax), time to reach maximum concentration (Tmax), apparent terminal half-life (t1/2), total clearance (CL), volume of distribution during terminal phase (Vz), and accumulation ratio based on AUC (ARAUC) were determined for BRII-693 in plasma. Urine parameters included amount and percentage of dose recovered in urine as unchanged drug over each collection interval and cumulatively and renal clearance (CLR). PK parameters were determined using noncompartmental methods in Phoenix WinNonlin (Certara, Version 8.3).

[3] = single 1-h IV infusion 10 mg, n = 6, arithmetic mean ± SD
[4] = single 1-h IV infusion 25 mg, n = 5, arithmetic mean ± SD
[5] = single 1-h IV infusion 50 mg, n = 6, arithmetic mean ± SD
[6] = single 1-h IV infusion 100 mg, n = 6, arithmetic mean ± SD
[7] = single 1-h IV infusion 200 mg, n = 6, arithmetic mean ± SD
[8] = single 1-h IV infusion 300 mg, n = 6, arithmetic mean ± SD
[9] = single 1-h IV infusion 400 mg, n = 6, arithmetic mean ± SD

CC[C@@H]1NC(=O)[C@@H](CC(C)C)NC(=O)[C@H](CCN)NC(=O)[C@@H](NC(=O)[C@H](CN)NC(=O)[C@@H](NC(=O)[C@H](CCN)NC(=O)c2ccc(Cl)cc2Cl)[C@@H](C)O)CCNC(=O)[C@H]([C@@H](C)O)NC(=O)[C@H](CCN)NC(=O)[C@H](CCN)NC1=O [BRII-693] (X1-[Dab]T[Dap][Dab][Dab][dL][Abu][Dab][Dab]T; lactam 4-C; N-terminus assumed)
clearance [1, 3]: 63.8 mL/min | Vd [1, 3]: 14.1 ± 1.54 L | clearance [1, 4]: 72.7 mL/min | Vd [1, 4]: 20.7 ± 7.61 L | clearance [1, 5]: 69.5 mL/min | Vd [1, 5]: 19.2 ± 3.34 L | clearance [1, 6]: 62.7 mL/min | Vd [1, 6]: 21.8 ± 3.17 L | clearance [1, 7]: 68.5 mL/min | Vd [1, 7]: 21.3 ± 3.27 L | clearance [1, 8]: 72.3 mL/min | Vd [1, 8]: 25.8 ± 2.73 L | clearance [1, 9]: 65.5 mL/min | Vd [1, 9]: 24.6 ± 2.47 L | half-life [1, 3]: 2.58 ± 0.46 h | AUC(0-inf) [1, 3]: 2640 ± 330 ng·h/mL | Cmax [1, 3]: 770 ± 120 ng/mL | AUC(0-t) [1, 3]: 2080 ± 190 ng·h/mL | Tmax ([1]; single 1-h IV infusion 10 mg, n = 6, median (range)): 1.12 h | half-life [1, 4]: 3.22 ± 0.77 h | AUC(0-inf) [1, 4]: 5940 ± 1180 ng·h/mL | Cmax [1, 4]: 1500 ± 380 ng/mL | AUC(0-t) [1, 4]: 4390 ± 1130 ng·h/mL | Tmax ([1]; single 1-h IV infusion 25 mg, n = 5, median (range)): 1.1 h | half-life [1, 5]: 3.2 ± 0.43 h | AUC(0-inf) [1, 5]: 12200 ± 1790 ng·h/mL | Cmax [1, 5]: 3230 ± 460 ng/mL | AUC(0-t) [1, 5]: 9160 ± 1170 ng·h/mL | Tmax ([1]; single 1-h IV infusion 50 mg, n = 6, median (range)): 1.07 h | half-life [1, 6]: 4.07 ± 0.61 h | AUC(0-inf) [1, 6]: 27300 ± 4580 ng·h/mL | Cmax [1, 6]: 6710 ± 970 ng/mL | AUC(0-t) [1, 6]: 19200 ± 2740 ng·h/mL | Tmax ([1]; single 1-h IV infusion 100 mg, n = 6, median (range)): 1.13 h | half-life [1, 7]: 3.83 ± 1.23 h | AUC(0-inf) [1, 7]: 51400 ± 13900 ng·h/mL | Cmax [1, 7]: 13200 ± 2190 ng/mL | AUC(0-t) [1, 7]: 36700 ± 6290 ng·h/mL | Tmax ([1]; single 1-h IV infusion 200 mg, n = 6, median (range)): 1.18 h | half-life [1, 8]: 4.12 ± 0.23 h | AUC(0-inf) [1, 8]: 69800 ± 7750 ng·h/mL | Cmax [1, 8]: 17300 ± 3050 ng/mL | AUC(0-t) [1, 8]: 48900 ± 6180 ng·h/mL | Tmax ([1]; single 1-h IV infusion 300 mg, n = 6, median (range)): 1.16 h | half-life [1, 9]: 4.37 ± 0.51 h | AUC(0-inf) [1, 9]: 103000 ± 11600 ng·h/mL | Cmax [1, 9]: 24300 ± 4710 ng/mL | AUC(0-t) [1, 9]: 71400 ± 7200 ng·h/mL | Tmax ([1]; single 1-h IV infusion 400 mg, n = 6, median (range)): 1.19 h | Mean total clearance ([1]; single doses 10–400 mg, appeared dose independent): approximately 4 L/h | CLR ([2]; Last q6h dose (day 9), 7-day MAD 100 mg q6h × 7, renal clearance, n = 6, arithmetic mean ± SD): 1.40 ± 0.60 L/h | fe0–48h ([2]; Last q6h dose (day 9), 7-day MAD 100 mg q6h × 7, urinary recovery over 48 h, n = 6, arithmetic mean ± SD): 66.5 ± 18.0% | CLR ([2]; Last q6h dose (day 9), 7-day MAD 150 mg q6h × 7, renal clearance, n = 5, arithmetic mean ± SD): 1.60 ± 0.60 L/h | fe0–48h ([2]; Last q6h dose (day 9), 7-day MAD 150 mg q6h × 7, urinary recovery over 48 h, n = 5, arithmetic mean ± SD): 57.2 ± 19.2% | CLR ([2]; Last q6h dose (day 9), 7-day MAD 200 mg q6h × 7, renal clearance, n = 5, arithmetic mean ± SD): 1.41 ± 0.23 L/h | fe0–48h ([2]; Last q6h dose (day 9), 7-day MAD 200 mg q6h × 7, urinary recovery over 48 h, n = 5, arithmetic mean ± SD): 74.3 ± 30.3% | CLR ([2]; Last q6h dose (day 14), 14-day MAD 150 mg q6h × 14, Chinese, renal clearance, n = 6, arithmetic mean ± SD): 1.67 ± 0.43 L/h | fe0–48h ([2]; Last q6h dose (day 14), 14-day MAD 150 mg q6h × 14, Chinese, urinary recovery over 48 h, n = 6, arithmetic mean ± SD): 70.9 ± 22.0% | CLR ([2]; Last q6h dose (day 14), 14-day MAD 150 mg q6h × 14, non-Chinese, renal clearance, n = 10, arithmetic mean ± SD): 1.91 ± 0.79 L/h | fe0–48h ([2]; Last q6h dose (day 14), 14-day MAD 150 mg q6h × 14, non-Chinese, urinary recovery over 48 h, n = 10, arithmetic mean ± SD): 74.1 ± 25.6% | Urinary recovery compared with polymyxin B ([2]; comparison with literature polymyxin B data (ref 11)): higher urinary recovery than polymyxin B
